The target in this assay is Beta-secretase 1 (Homo sapiens, UniProt P56817). Put plainly: Inhibition of recombinant BACE1 (unknown origin) using H-Ile-Lys-Thr-Glu-Glu-Ile-Ser-Glu-Val-Asn-Leu-Asp-Ala-Glu-Phe-Arg-His-Asp-Ser-Gly-NH2 as substrate measured after 90 mins by HPLC analysis.

For orientation: IC50 means the midpoint of a concentration-inhibition curve.

Chain of Beta-secretase 1 (P56817 whole entry): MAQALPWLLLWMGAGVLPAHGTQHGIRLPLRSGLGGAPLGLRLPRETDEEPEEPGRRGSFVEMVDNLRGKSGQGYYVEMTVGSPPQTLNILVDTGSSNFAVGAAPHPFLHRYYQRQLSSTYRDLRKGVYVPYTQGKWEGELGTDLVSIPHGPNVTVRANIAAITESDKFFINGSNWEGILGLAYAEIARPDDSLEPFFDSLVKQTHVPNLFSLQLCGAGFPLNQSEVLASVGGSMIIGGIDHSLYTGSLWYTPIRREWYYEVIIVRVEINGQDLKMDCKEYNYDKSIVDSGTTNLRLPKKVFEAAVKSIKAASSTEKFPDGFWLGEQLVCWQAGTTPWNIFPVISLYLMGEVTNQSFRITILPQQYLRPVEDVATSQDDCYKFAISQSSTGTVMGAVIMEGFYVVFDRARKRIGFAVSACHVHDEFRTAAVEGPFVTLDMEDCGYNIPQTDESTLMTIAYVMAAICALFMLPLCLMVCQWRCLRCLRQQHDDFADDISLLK

Take `C[C@H]1OC[C@]2(c3cc(NC(=O)c4cnc(C(F)F)cn4)ccc3F)N=C(N)SC[C@H]12` [ELENBECESTAT]: the IC50 came to 57 nM.

These data come from ChEMBL document CHEMBL6114974, “Development of novel BACE1 inhibitors with a hydroxyproline-derived N-amidinopyrrolidine scaffold” (Bioorg Med Chem, 2025).
